According to patent EP3184514A1, “AUTOPHAGY INHIBITORS” (Deutsches Krebsforschungszentrum, priority 2015, dated 2017):

Columns and labels:
[1] = target: T1, LC3B (Homo sapiens, UniProt Q9GZQ8); assay: AlphaScreen interaction displacement assay (GST-LC3B / biotin-LIRtide); format: binding; settings: Table 1-a; n.e. means no effect; read-out: LC3B inhibition cell free IC50
T1 construct: made in house; host or cells: E. coli Rosetta (DE3)
Description: The AlphaScreen assay contained 50 mM Tris (pH 7.5), 100 mM NaCl, 0.01% Tween 20, 2 mM DTT, 1 % DMSO and 2-30 nM GST-LC3B and biotin-LIRtide 2-30 nM. The concentrations of GST-LC3B and biotin-LIRtide were experimentally chosen from a cross-titration assay exploring the different combinations of for each batch of protein used and when a new batch of buffer was prepared.
(§1) A gene encoding for human LC3B protein inserted in a pET-GST expression vector was used as a template. Rosetta (DE3) competent cells were transformed by started procedure, plated on an LB agar plate with ampicillin (100 µg/ml) and left overnight at 37 °C. Overnight culture was prepared from a single colony and shaken at 180 rpm at 37 °C. LB medium with ampicillin was inoculated with overnight culture (10 ml per 500 ml of LB) and shaken until the optical density at 600 nm (OD600) reached a value of approximately 0.6. Protein expression was then induced with 400 µM IPTG and further incubated for 4 hours. Bacterial culture was centrifuged for 20 minutes at 6000 rpm at 4 °C. The pellet was then resuspended in lysis buffer (20 mM TRIS-HCl pH 7.5, 10 mM EDTA, 5 mM EGTA, 150 mM NaCl, 0.5 % NP40, 1 % Triton X-100, 1 mM DTT, 2 mg/ml lysozyme, 0.05 U/µl benzonase, 1x protease inhibitor cocktail). Lysate was then stored at -20 °C over night. Sample was thawed in water bath and sonicated on ice (40 % amplitude, 30 seconds pulse/30 seconds pause cycle). Lysate was centrifuged at 10000xg at 4 °C for half an hour. Meanwhile, 500 µl of glutathione sepharose beads was equilibrated with lysis buffer and then added to the supernatant. The mixture was incubated and rotated at room temperature for 2 hours. After binding of the protein to the beads, beads were spun down at 500xg at 4 °C for 5 minutes. Pellet was then washed with cold wash buffer at least four times (20 mM Tris-HCl pH 7.5, 10 mM EDTA, 5 mM EGTA, 150 mM NaCl, 1 mM DTT), dried and stored in 5 % glycerol at 4 °C.

[2] = target: T2, GST-tagged LC3B (Homo sapiens, UniProt Q9GZQ8); assay: GST-pulldown with purified GST-LC3B and lysates of treated cells; settings: HEK293T cells treated 100 µM, 1 hour; remaining binding compared to DMSO control
T2 construct: made in house; host or cells: E. coli Rosetta (DE3)
Description: as §1, with “Pellet was then washed with cold wash buffer at least four times (20 mM Tris-HCl pH 7.5, 10 mM EDTA, 5 mM EGTA, 150 mM NaCl, 1 mM DTT), dried and stored in 5 % glycerol at 4 °C.” left out

[3] = system: U2OS cells; assay: MTT cell viability assay; format: cell-based, Human
Description: (§2) The MTT assay is a colorimetric assay for assessing cell viability. NAD(P)H-dependent cellular oxidoreductase enzymes in metabolic active cells reduce the tetrazolium dye MTT 3-(4,5-dimethylthiazol-2-yl)-2,5-diphenyltetrazolium bromide to its insoluble purple formazan. All cell types were seeded in 96 well plates and left over night for attachment. Next day, cells were treated with 100 µM compound I-1 for 24, 48, 72, and 96 hours. For controls, 1 µM staurosporine and 100 nM BafA1 were used. The assay was performed according to manufacturer's instructions and the absorbance of the formazan product was measured at 595 nm.

[4] = system: A549; assay: MTT cell viability assay; format: cell-based
Description: as §2

[5] = system: HCT116; assay: MTT cell viability assay; format: cell-based; settings: 72 and 96 hours
Description: as §2

[6] = system: PANC1; assay: MTT cell viability assay; format: cell-based; settings: 72 and 96 hours
Description: as §2

For `Brc1ccc(CSC2=NCN(Cc3cccnc3)CN2)cc1` [Compound I-1, 6-((4-bromobenzyl)thio)-3-(pyridin-3-ylmethyl)-1,2,3,4-tetrahydro-1,3,5-triazine], the IC50 [1] was 6 µM, the “binding of p62 and ATG13 to GST-tagged LC3B” value [2] was “approximately 50%” and the cell survival ([3]; 72 and 96 hours) was “almost no cell survival”. For the same compound, the cell viability ([3]; 24 hours, 100 µM) was “decreased viability”, the reduced cell viability ([4]; 72 and 96 hours) was “approximately 50%” and the cell viability ([4]; 48 hours) was “unaffected”. For the same compound, the cell survival [5] was “almost no cell survival” and the reduced cell viability [6] was “approximately 50%”.
